Entries after “also recorded” stand apart in the source; their conditions may differ. Like-named read-outs stand apart in the source and are kept apart here.
Assays:
[1] = target: T1, olfactory receptor OR240 (also OR7D4) (Homo sapiens, UniProt Q8NG98); test: Calcium imaging of HBO cells transiently transfected with OR7D4; assay type: cell-based; conditions: HBO cells transfected with OR7D4/OR240 plus chaperone DNA (RTP1S and M3); 30 or 100 micromolar
T1 construct: expressed in transfected cells; host or cells: cultured human taste papillae (HBO) cells, Lipofectamine 2000, transient
T1 sequence (Q8NG98 1-312): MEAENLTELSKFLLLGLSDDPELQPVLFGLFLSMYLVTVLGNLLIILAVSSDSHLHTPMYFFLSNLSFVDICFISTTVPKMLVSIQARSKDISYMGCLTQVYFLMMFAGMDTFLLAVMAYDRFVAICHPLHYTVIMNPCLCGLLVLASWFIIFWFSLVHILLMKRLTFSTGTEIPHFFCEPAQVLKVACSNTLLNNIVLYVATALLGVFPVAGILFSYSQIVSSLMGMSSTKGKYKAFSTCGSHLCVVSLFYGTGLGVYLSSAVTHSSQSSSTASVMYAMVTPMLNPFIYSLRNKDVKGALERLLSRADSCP

[2] = test system: olfactory receptor ORS6 (also Olfr544); test: Calcium imaging of HBO cells transiently transfected with ORS6; assay type: cell-based, mouse; conditions: HBO cells transfected with ORS6 plus chaperone DNA (RTP1S and M3); 30 or 100 micromolar
[3] = test system: cultured taste papillae cells obtained from mOR-M71-GFP ("M71") mice; test: Calcium imaging of cultured taste papillae cells from mOR-M71-GFP mice; assay type: cell-based; conditions: fura-2 calcium imaging; odorants at optimal concentration 100 uM; mOR-M71-GFP mouse taste cell cultures
Experimental: (§1) Circumvallate and foliate papillae obtained from wild (m129), I7, M71 and Eugenol transgenic mice were isolated according to previously published procedure (Ozdener et al., 2006, cited above). Briefly, mouse taste papillae were removed by injecting the mixture of enzyme (pronase, 1 mg/ml Sigma and elastase 1 mg/ml Sigma) and immediately placed into an isolation solution followed by enzymatic digestion. Digested taste papillae tissue were then gently minced with a surgical razor and seeded on collagen type-1 coated coverslips and incubated at 36° C. in a humidified environment containing 5% CO2.
(§2) Changes in intracellular calcium levels in response to stimuli were measured. Cultured human fungiform and mice taste papillae cells were seeded on 15 mm coverslips. Cells were loaded with […] Fura-2 AM (Molecular Probes Inc.) in 10 mg/mL Pluronic® F127 (Molecular Probes Inc.) in modified Ringer solution for 1 hour at 36° C. […] Following image acquisition, regions of interest (ROIs) on the cells along with a background control region were selected to be measured for fluorescence ratios and intensity values. […] Ratio data for the cells were subsequently analyzed on Excel to determine which cells had responded with a significant change in intracellular calcium. […]

[4] = test system: cultured taste papillae cells obtained from M129 mice; test: Calcium imaging of cultured wild mouse (m129) taste papillae cells; assay type: cell-based; conditions: fura-2 calcium imaging; odorants at optimal concentration 100 uM; wild (m129) mouse taste cell cultures
Experimental: as §1
Changes in intracellular calcium levels in response to stimuli were measured. Cultured human fungiform and mice taste papillae cells were seeded on 15 mm coverslips. Cells were loaded with […] Fura-2 AM (Molecular Probes Inc.) in 10 mg/mL Pluronic® F127 (Molecular Probes Inc.) in modified Ringer solution for 1 hour at 36° C. Individual odors, bitter mixture [phenylthiocarbamide (PTC, 2 mM) and Denatonium (2 mM), Salicin (5 mM)]; and Mix A [cAMP-producing odors in rat biochemical assays (Breer and Boekhoff, 1991, Chem. Senses, 16(1): 19-29, and Restrepo et al., 1993, J. Gen. Physiol., 102:907-924); both of which are incorporated herein by reference] (100 mM): hedione, geraniol, phenylethyl alcohol, citralva, citronellal, and eugenol,]; and Mix B [IP3-producing odors in rat biochemical assays (Breer and Boekhoff, 1991 and Restrepo et al 1993)] (100 mM): lyral, lilial, triethylamine, ethyl vanillin, isovaleric acid, and phenylethyl amine]) was diluted in Ringer, which was prepared with pH adjusted to 7.2 and osmolality adjusted to 300 mmol/kg. A coverslip was placed into a p4 chamber system with the delivery and waste pipes attached to the chamber. […] Following image acquisition, regions of interest (ROIs) on the cells along with a background control region were selected to be measured for fluorescence ratios and intensity values. […] Ratio data for the cells were subsequently analyzed on Excel to determine which cells had responded with a significant change in intracellular calcium. […]

[5] = test system: cultured fungiform taste papillae (HBO) cells obtained from human tongue; test: Calcium imaging of cultured human fungiform taste papillae (HBO) cells; assay type: cell-based; conditions: fura-2 calcium imaging, odorants at optimal concentration 100 uM
Experimental: The human fungiform papillae cells were cultured according to published protocols (Ozdener et al., Chem Senses. 2006 March; 31(3): 279-90; Ozdener et al., In Vitro Cellular & Developmental Biology—Animal. September 2011, 47(8): 513-14; each of which is incorporated herein by reference). Briefly, human fungiform taste papillae were removed and immediately placed into an isolation solution [26 mM NaHCO3, 2.5 mM NaH2PO4, 20 mM glucose, 65 mM NaCl, 20 mM KCl, and 1 mM ethylenediaminetetraacetic acid (EDTA)] followed by enzymatic digestion with pronase E and elastase. Digested fungiform papillae were then gently minced with a surgical razor and seeded on collagen type-1 coated coverslips and incubated at 36° C. in a humidified environment containing 5% CO2. The human fungiform taste papillae were cultured in Iscove's Modified Dulbecco's medium containing 10% fetal bovine serum, 1:5 ratio of MCDB 153, and a triple cocktail of antibiotics (100 U/mL/100 μg/mL, penicillin/streptomycin, and 0.5 μg/mL fungizone). Human fungiform taste papillae cells have been maintained in culture for a period of more than 1 year without loss of viability and with retention of the molecular and biochemical properties of acutely isolated taste cells.
(§3) Changes in intracellular calcium levels in response to stimuli were measured. Cultured human fungiform and mice taste papillae cells were seeded on 15 mm coverslips. Cells were loaded with […] Fura-2 AM (Molecular Probes Inc.) in 10 mg/mL Pluronic® F127 (Molecular Probes Inc.) in modified Ringer solution for 1 hour at 36° C. Individual odors, bitter mixture [phenylthiocarbamide (PTC, 2 mM) and Denatonium (2 mM), Salicin (5 mM)]; and Mix A [cAMP-producing odors in rat biochemical assays (Breer and Boekhoff, 1991, Chem. Senses, 16(1): 19-29, and Restrepo et al., 1993, J. Gen. Physiol., 102:907-924); both of which are incorporated herein by reference] (100 mM): hedione, geraniol, phenylethyl alcohol, citralva, citronellal, and eugenol,]; and Mix B [IP3-producing odors in rat biochemical assays (Breer and Boekhoff, 1991 and Restrepo et al 1993)] (100 mM): lyral, lilial, triethylamine, ethyl vanillin, isovaleric acid, and phenylethyl amine]) was diluted in Ringer, which was prepared with pH adjusted to 7.2 and osmolality adjusted to 300 mmol/kg. A coverslip was placed into a p4 chamber system with the delivery and waste pipes attached to the chamber. This allowed for a stable and constant flow of liquid in and out of the chamber. The cells were visualized with an inverted florescence microscope using an excitation wavelength of 380 nm. Stimulus selection and delivery, focusing, and image acquisition were done using PTI software. Following image acquisition, regions of interest (ROIs) on the cells along with a background control region were selected to be measured for fluorescence ratios and intensity values. Cultured taste papillae cells were first washed for 1-3 min with Ringer, and then stimuli delivery was initiated. Each stimulus was delivered for 30 sec-1 min followed by an approximately 2 min wash out period with Ringer. Ratio data for the cells were subsequently analyzed on Excel to determine which cells had responded with a significant change in intracellular calcium. After calcium imaging, coverslips were fixed with 4% PFA for 10 min and washed 3× with PBS.

[6] = test system: immortalized human fungiform taste papillae (Ulduz) cells; test: Odor response of immortalized human fungiform taste papillae (Ulduz) cells; assay type: cell-based
Experimental: as §3
In a similar manner, immortalized human fungiform taste papillae (Ulduz) cells, responded to receptor specific odors, heptaldehyde, acetophenone, methyl cinnamon, eugenol and lyral.

[7] = test system: cultured taste papillae cells obtained from mOR-EG-GFP ("mEUG") mice; test: Calcium imaging of cultured taste papillae cells from mOR-EG-GFP mice; assay type: cell-based; conditions: fura-2 calcium imaging; odorants at optimal concentration 100 uM; mOR-EG-GFP mouse taste cell cultures
Experimental: as §1, §2

SMILES	response to stimulus (change in intracellular calcium) [4]	response to stimulus (change in intracellular calcium [Ca2+]i) [5]	response to receptor specific odor [6]	other results
C[C@@]12CCC[C@H]1[C@@H]1CC[C@H]3CC(=O)CC[C@]3(C)[C@H]1CC2 [Androstanone]	–	–	–	calcium response to receptor specific odor [1]: response occurred
O=C(O)CCCCCCCC(=O)O [Nonanedionic acid]	–	–	–	calcium response to receptor specific odor [2]: response occurred
CC(=O)c1ccccc1 [acetophenone]	responded; also recorded: sensitive	sensitive	respond	response to stimulus (change in intracellular calcium) [3]: exhibited a response; also recorded: respond; also recorded: responsive
O=Cc1ccccc1 [benzaldehyde]	responded; also recorded: sensitive	–	–	response to stimulus (change in intracellular calcium) [3]: respond
O=c1ccc2ccccc2o1 [coumarin]	–	sensitive	–	–
C=CCc1ccc(O)c(OC)c1 [eugenol]	sensitive	sensitive	respond	response to stimulus (change in intracellular calcium) [7]: respond; also recorded: responsive
CCCCCCC=O [heptanal]	–	sensitive	–	response to receptor specific odor ([6]; listed as heptaldehyde): respond
CCCCCC(=O)O [hexanoic acid]	–	sensitive	–	–
CC(C)(O)CCCC1=CCC(C=O)CC1 (stereo not shown) [lyral]	–	sensitive	respond	–
COC(=O)/C=C/c1ccccc1 [methyl cinnamon]	–	–	respond	–
